Laboratory results from ChEMBL document CHEMBL1201862, “PubChem BioAssay data set” (2004).
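Compound exposure: 48 hours, 5 concentrations, 96-well plates. Here, GI50 denotes the concentration required for 50% inhibition of growth.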 The source made the active and inactive calls. No stated cut-off is given here; in the data, active = GI50 up to about 1.1 µM and inactive = higher.

Tests used:
Assay in all cases: DTP human tumour cell line panel, 48 h
DMS-114 = system: DMS-114
T47D = system: T47D
XF498 = system: XF498
SNB-78 = system: SNB-78
LXFL 529 = system: LXFL 529
DMS-273 = system: DMS-273
M19-MEL = system: M19-MEL
HOP-18 = system: HOP-18
RXF 631 = system: RXF 631

Structure (SMILES)	GI50 (DMS-114)	GI50 (T47D)	GI50 (XF498)	GI50 (SNB-78)	GI50 (LXFL 529)	GI50 (DMS-273)	GI50 (M19-MEL)	GI50 (HOP-18)	GI50 (RXF 631)
COC(COC(N)=O)C1=C(N2CC2)C(=O)C(C)=C(N2CC2)C1=O (centres undefined) [CARBOQUONE]	0.063 µM (active)	43.5 nM (active)	0.154 µM (active)	0.574 µM (active)	0.196 µM (active)	< 0.01 µM (active)	0.0968 µM (active)	0.199 µM (active)	–
COC1=CC(=O)C2[C@H]3Cc4ccccc4[C@H]3C2(C)C1=O (some centres undefined)	–	–	51.5 µM (inactive)	78 µM (inactive)	> 100 µM (inactive)	> 100 µM (inactive)	83.2 µM (inactive)	–	> 100 µM (inactive)
O=C(CC1(O)C(=O)Nc2ccccc21)c1cccc(O)c1 (centres undefined)	> 100 µM (inactive)	–	42.5 µM (inactive)	> 100 µM (inactive)	> 100 µM (inactive)	> 100 µM (inactive)	> 100 µM (inactive)	–	> 100 µM (inactive)
CCc1cccc(C)c1NC(=O)C(=O)Cc1nc2ccccc2s1	> 100 µM (inactive)	–	–	> 100 µM (inactive)	> 100 µM (inactive)	> 100 µM (inactive)	> 100 µM (inactive)	> 100 µM (inactive)	> 100 µM (inactive)
COc1cc(C(=O)N[C@H]2CCc3cc(OC)c(OC)c(OC)c3-c3ccc(SC)c(=O)cc32)cc(OC)c1OC	0.00775 µM (active)	–	0.024 µM (active)	0.0025 µM (active)	0.00811 µM (active)	0.00298 µM (active)	0.0225 µM (active)	–	0.0338 µM (active)
CN1C(=O)C(C)(C)NS1(=O)=O	> 100 µM (inactive)	–	> 100 µM (inactive)	> 100 µM (inactive)	> 100 µM (inactive)	> 100 µM (inactive)	> 100 µM (inactive)	–	> 100 µM (inactive)
CN(C)C(=S)/N=c1\ssc(=S)n1Cc1ccccn1	–	–	8.95 µM (inactive)	30.2 µM (inactive)	3.9 µM (inactive)	1.64 µM (inactive)	2.36 µM (inactive)	9.38 µM (inactive)	3.7 µM (inactive)
CN(Cc1ccccc1)C(=O)c1ccccc1C(=O)O	> 100 µM (inactive)	–	> 100 µM (inactive)	–	> 100 µM (inactive)	> 100 µM (inactive)	> 100 µM (inactive)	–	> 100 µM (inactive)
CCCCC/C=C1\CCC(CN2CCOCC2)C1=O (centres undefined)	13.6 µM (inactive)	2720 nM (inactive)	17.4 µM (inactive)	12.6 µM (inactive)	5.32 µM (inactive)	–	19 µM (inactive)	14.2 µM (inactive)	12.1 µM (inactive)
N=C(N)NCCCS(=O)(=O)Nc1ccc(Nc2c3ccccc3nc3cc([N+](=O)[O-])ccc23)cc1	4.72 µM (inactive)	728 nM (active)	1.91 µM (inactive)	21.4 µM (inactive)	5.62 µM (inactive)	4.21 µM (inactive)	3.63 µM (inactive)	20.8 µM (inactive)	25.7 µM (inactive)
O=C1/C=C(/c2ccc(O)cc2)[C@@H](O)Cc2ccc(O)cc2O1	51.3 µM (inactive)	–	–	41.8 µM (inactive)	63.7 µM (inactive)	–	> 100 µM (inactive)	–	38.2 µM (inactive)
O=C1CN(C(=O)c2ccccc2)Cc2[nH]c3ccccc3c21	> 100 µM (inactive)	–	> 100 µM (inactive)	> 100 µM (inactive)	> 100 µM (inactive)	> 100 µM (inactive)	> 100 µM (inactive)	> 100 µM (inactive)	> 100 µM (inactive)
CCCOc1ccc(/C=C\c2cc(OC)c(OC)c(OC)c2)cc1	34.4 µM (inactive)	–	62.2 µM (inactive)	> 100 µM (inactive)	52.8 µM (inactive)	36.3 µM (inactive)	67.8 µM (inactive)	> 100 µM (inactive)	37.1 µM (inactive)
CN(C)CCNc1ccc2nnn3c4ccc(Cl)cc4c(=O)c1c23	–	14400 nM (inactive)	8.73 µM (inactive)	11.9 µM (inactive)	3.23 µM (inactive)	2.82 µM (inactive)	3.51 µM (inactive)	–	2.37 µM (inactive)
CCC1=CCC(P(=O)(c2ccccc2)c2ccccc2)CC1C (centres undefined)	32.9 µM (inactive)	–	40.1 µM (inactive)	61.2 µM (inactive)	41.8 µM (inactive)	36.3 µM (inactive)	39.5 µM (inactive)	22.8 µM (inactive)	–
NC(=O)COc1c(Br)cc(Br)cc1Br	> 100 µM (inactive)	–	> 100 µM (inactive)	–	–	> 100 µM (inactive)	> 100 µM (inactive)	–	> 100 µM (inactive)
COc1ccc2oc3c(OC)c(OC)c(OC)cc3c(=O)c2c1	> 100 µM (inactive)	–	> 100 µM (inactive)	69.7 µM (inactive)	> 100 µM (inactive)	> 100 µM (inactive)	> 100 µM (inactive)	0.232 µM (active)	> 100 µM (inactive)
C/C(N)=[N+](/C)[O-]	18.4 µM (inactive)	–	> 100 µM (inactive)	> 100 µM (inactive)	> 100 µM (inactive)	–	40.5 µM (inactive)	> 100 µM (inactive)	> 100 µM (inactive)
C[C@]12CCC(=O)C(O)=C1CC[C@@H]1C2CC[C@]2(C)NC(=O)CCC12 (some centres undefined)	> 100 µM (inactive)	–	> 100 µM (inactive)	> 100 µM (inactive)	> 100 µM (inactive)	> 100 µM (inactive)	> 100 µM (inactive)	> 100 µM (inactive)	> 100 µM (inactive)
N[C@H]1C2C3CC4C5CC(C42)C1(c1ccccc1)C53 (some centres undefined)	> 100 µM (inactive)	–	> 100 µM (inactive)	> 100 µM (inactive)	> 100 µM (inactive)	> 100 µM (inactive)	> 100 µM (inactive)	> 100 µM (inactive)	–
CCNC(=O)O/N=C1\CCC2[C@@H]3CC=C4C[C@@H](OC(=O)NCC)CC[C@]4(C)C3CC[C@]12C (some centres undefined)	0.358 µM (active)	–	0.0792 µM (active)	–	1.01 µM (active)	1.22 µM (inactive)	1.65 µM (inactive)	1.7 µM (inactive)	4.26 µM (inactive)
